In patent US11896561B2, “Compositions including a cannabinoid and protocatechuic acid” (priority 2021, dated 2024):
Converted amounts (≈) assume the structure as drawn. “Also recorded” adds a separate entry of the source.

How the values were obtained:
[1] = CBD solubility testing in liquid vehicles; format: physicochemical
Source text: The liquid vehicles used are considered G.R.A.S. by FDA; distilled water, deionized water, propylene glycol and 70% isopropyl alcohol. The test containers were 125-milliliter graduated and measured sterile plastic from Wheaton company. A thermometer probe was used to assess the temperatures.
Testing was done to determine the independent solubility of each reagent in the various vehicles. This was followed by testing the potential concentrations of each when combined. The testing started with an arbitrary solution concentration, one that could be altered for percentage of solubility.

[2] = Testing of smear on glass slide (crystals deployed); format: physicochemical
Source text: An additional method was employed to replicate the clinical topical application. A smear of the various concentrations was made on the glass histology blank slide to show the amount of crystals deployed for the various concentrations.

[3] = humans; cited from earlier work
[4] = cited from earlier work
[5] = cited from earlier work; remark: listed apart in the source
[6] = test system: MRSA and Pseudomonas; conditions: cited from earlier work
[7] = compared with vitamin E; cited from earlier work

Compound: C=C(C)[C@@H]1CCC(C)=C[C@H]1c1c(O)cc(CCCCC)cc1O [CBD, Cannabidiol]
- heating necessary for dissolving ([1]; 0.247 (0.247%) in 100 ml distilled water): 120 degrees Fahrenheit
- solution outcome upon cooling ([1]; 0.247 (0.247%) in 100 ml distilled water, heated to 120 degrees Fahrenheit then cooled): went out of solution
- time remained in solution ([1]; 0.517 (0.5 grams) in 50 ml deionized water, preheated): at least 48 hours
- heating necessary for dissolving ([1]; 1.0 gram (1%) in 100 ml distilled water): 120 degrees Fahrenheit
- solution outcome upon cooling ([1]; 1.0 gram (1%) in 100 ml distilled water, heated to 120 degrees Fahrenheit then cooled): went out of solution
- time remained in solution ([1]; 1 gram (1%) in 100 ml propylene glycol, preliminary heating to 120 Fahrenheit, after cooling): > 48 h
- time soluble ([1]; 1.02 gram in 100 ml isopropyl alcohol): more than 48 hours
- temperature at which it went into solution ([1]; 1.025 grams in 50 ml deionized water): 120 Fahrenheit
- solution outcome ([1]; 1.025 grams in 50 ml deionized water (2.05%), after cooling): came out of solution
- solution outcome upon cooling ([1]; 2% in 100 ml propylene glycol, heated then cooled): came out of solution
- solution outcome ([1]; 2 grams (4%) in 50 ml propylene glycol, with heating): did not go into solution even with heating; also recorded: not dissolved even on heating
- time remained soluble ([1]; 3 grams in 100 ml 70% isopropyl alcohol): more than 48 hours
- temperature required to dissolve ([1]; 40 milligrams of CBD in distilled water): 140 degrees Fahrenheit
- effect of heating in solution ([1]; heated past 100 Fahrenheit): forms a tan “glue” like material
- effect of heating alone and/or in combination ([1]; heating above 90 Fahrenheit): tan ‘glue’ or sticky material
- crystals on glass slide smear ([2]; 1% concentrations): very sparse crystals
- crystals on glass slide smear ([2]; concentrations of 2 and 3%): abundant crystals
- oral bioavailability [3]: approximately 6%
- elimination half-life ([4]; in vivo): 18 to 32 h
- solubility in DMSO ([5]; DMSO purged with an inert gas): ~60 mg/mL (≈ 191 mM)
- solubility in alcohol / isopropyl alcohol ([5]; alcohol, at the original time of extraction, by the literature): up to 90%
- solubility in dimethyl formamide ([5]; dimethyl formamide purged with an inert gas): ~50 mg/mL (≈ 159 mM)
- solubility in ethanol ([5]; ethanol purged with an inert gas): approximately 35 mg/ml
- solubility in methanol ([5]; methanol purged with an inert gas): ~30 mg/mL (≈ 95.4 mM)

Compound: O=C(O)c1ccc(O)c(O)c1 [PCA, Protocatechuic acid]
- crystals on glass slide smear ([2]; concentrations of 2 and 3%): abundant crystals
- life (duration in the body) ([4]; in vivo): 8 h
- oral availability ([4]; oral, in 30 minutes): 100%
- peak ([4]; time of peak in the body): 2 min
- time to heal the wound ([6]; topical 25 uM PCA, mammalian skin wound): 2 days
- topical dose sufficient for controlling skin wound infection ([6]; topical, mammalian skin wound of MRSA and Pseudomonas): 25 µM
- antioxidant power relative to vitamin E [7]: 10 times
